Tests used:
Assay in all cases: KINOMEscan
Assay type in all cases: binding
[1] = biological target: T1, MLK1 (Homo sapiens, UniProt P80192); conditions: MLK1, 1 uM
T1 construct: purchased Ambit KINOMEscan (DiscoverX)
Summary of the method: (§1)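 First-pass selectivity screen: compound at 1 μM, endpoint is whether substrate binding to each kinase is suppressed.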

[2] = biological target: T2, HIPK3 (Homo sapiens, UniProt Q9H422); conditions: HIPK3, 1 uM
T2 construct: purchased Ambit KINOMEscan (DiscoverX)
Summary of the method: as §1

[3] = biological target: T3, LIMK1 (Homo sapiens, UniProt P53667); conditions: LIMK1, 1 uM
T3 construct: purchased Ambit KINOMEscan (DiscoverX)
Summary of the method: as §1

[4] = biological target: T4, GRK4 (Homo sapiens, UniProt P32298); conditions: GRK4, 1 uM
T4 construct: purchased Ambit KINOMEscan (DiscoverX)
Summary of the method: as §1

[5] = biological target: T5, MAP3K15 (Homo sapiens, UniProt Q6ZN16); conditions: MAP3K15, 1 uM
T5 construct: purchased Ambit KINOMEscan (DiscoverX)
Summary of the method: as §1

[6] = biological target: T6, BRAF (Homo sapiens, UniProt P15056); conditions: 1 uM
T6 construct: purchased Ambit KINOMEscan (DiscoverX)
Summary of the method: as §1

[7] = biological target: T7, SRMS (Homo sapiens, UniProt Q9H3Y6); conditions: 1 uM
T7 construct: purchased Ambit KINOMEscan (DiscoverX)
Summary of the method: as §1

[8] = biological target: T8, MAP4K5 (Homo sapiens, UniProt Q9Y4K4); conditions: MAP4K5, 1 uM
T8 construct: purchased Ambit KINOMEscan (DiscoverX)
Summary of the method: as §1

[9] = biological target: T9, PKAC-alpha (Homo sapiens, UniProt P17612); conditions: 1 uM
T9 construct: purchased Ambit KINOMEscan (DiscoverX)
Summary of the method: as §1

[10] = biological target: T10, MERTK (Homo sapiens, UniProt Q12866); conditions: 1 uM
T10 construct: purchased Ambit KINOMEscan (DiscoverX)
Summary of the method: as §1

[11] = biological target: T11, ERK5 (Homo sapiens, UniProt Q13164); conditions: ERK5, 1 uM
T11 construct: purchased Ambit KINOMEscan (DiscoverX)
Summary of the method: as §1

[12] = biological target: T12, BRSK1 (Homo sapiens, UniProt Q8TDC3); conditions: BRSK1, 1 uM
T12 construct: purchased Ambit KINOMEscan (DiscoverX)
Summary of the method: as §1

[13] = biological target: T13, INSRR (Homo sapiens, UniProt P14616); conditions: 1 uM
T13 construct: purchased Ambit KINOMEscan (DiscoverX)
Summary of the method: as §1

[14] = system: FLT3(ITD); conditions: 1 uM
Summary of the method: as §1

[15] = biological target: T14, CSNK1A1 (Homo sapiens, UniProt P48729); conditions: CSNK1A1, 1 uM
T14 construct: purchased Ambit KINOMEscan (DiscoverX)
Summary of the method: as §1

[16] = biological target: T15, STK33 (Homo sapiens, UniProt Q9BYT3); conditions: STK33, 1 uM
T15 construct: purchased Ambit KINOMEscan (DiscoverX)
Summary of the method: as §1

[17] = biological target: T16, TSSK1B (Homo sapiens, UniProt Q9BXA7); conditions: 1 uM
T16 construct: purchased Ambit KINOMEscan (DiscoverX)
Summary of the method: as §1

[18] = biological target: T17, EPHA8 (Homo sapiens, UniProt P29322); conditions: EPHA8, 1 uM
T17 construct: purchased Ambit KINOMEscan (DiscoverX)
Summary of the method: as §1

[19] = biological target: T18, IRAK3 (Homo sapiens, UniProt Q9Y616); conditions: IRAK3, 1 uM
T18 construct: purchased Ambit KINOMEscan (DiscoverX)
Summary of the method: as §1

[20] = biological target: T19, LATS1 (Homo sapiens, UniProt O95835); conditions: LATS1, 1 uM
T19 construct: purchased Ambit KINOMEscan (DiscoverX)
Summary of the method: as §1

[21] = biological target: T20, LYN (Homo sapiens, UniProt P07948); conditions: 1 uM
T20 construct: purchased Ambit KINOMEscan (DiscoverX)
Summary of the method: as §1

[22] = biological target: T21, TEC (Homo sapiens, UniProt P42680); conditions: 1 uM
T21 construct: purchased Ambit KINOMEscan (DiscoverX)
Summary of the method: as §1

[23] = biological target: T22, MLCK (Homo sapiens, UniProt Q32MK0); conditions: 1 uM
T22 construct: purchased Ambit KINOMEscan (DiscoverX)
Summary of the method: as §1

[24] = biological target: T23, INSR (Homo sapiens, UniProt P06213); conditions: 1 uM
T23 construct: purchased Ambit KINOMEscan (DiscoverX)
Summary of the method: as §1

[25] = biological target: T24, TNIK (Homo sapiens, UniProt Q9UKE5); conditions: 1 uM
T24 construct: purchased Ambit KINOMEscan (DiscoverX)
Summary of the method: as §1

[26] = biological target: T25, MAP4K2 (Homo sapiens, UniProt Q12851); conditions: for % binding compared to no inhibitor control: MAP4K2, 1 uM
T25 construct: purchased Ambit KINOMEscan (DiscoverX)
T25 sequence (Q12851 1-820): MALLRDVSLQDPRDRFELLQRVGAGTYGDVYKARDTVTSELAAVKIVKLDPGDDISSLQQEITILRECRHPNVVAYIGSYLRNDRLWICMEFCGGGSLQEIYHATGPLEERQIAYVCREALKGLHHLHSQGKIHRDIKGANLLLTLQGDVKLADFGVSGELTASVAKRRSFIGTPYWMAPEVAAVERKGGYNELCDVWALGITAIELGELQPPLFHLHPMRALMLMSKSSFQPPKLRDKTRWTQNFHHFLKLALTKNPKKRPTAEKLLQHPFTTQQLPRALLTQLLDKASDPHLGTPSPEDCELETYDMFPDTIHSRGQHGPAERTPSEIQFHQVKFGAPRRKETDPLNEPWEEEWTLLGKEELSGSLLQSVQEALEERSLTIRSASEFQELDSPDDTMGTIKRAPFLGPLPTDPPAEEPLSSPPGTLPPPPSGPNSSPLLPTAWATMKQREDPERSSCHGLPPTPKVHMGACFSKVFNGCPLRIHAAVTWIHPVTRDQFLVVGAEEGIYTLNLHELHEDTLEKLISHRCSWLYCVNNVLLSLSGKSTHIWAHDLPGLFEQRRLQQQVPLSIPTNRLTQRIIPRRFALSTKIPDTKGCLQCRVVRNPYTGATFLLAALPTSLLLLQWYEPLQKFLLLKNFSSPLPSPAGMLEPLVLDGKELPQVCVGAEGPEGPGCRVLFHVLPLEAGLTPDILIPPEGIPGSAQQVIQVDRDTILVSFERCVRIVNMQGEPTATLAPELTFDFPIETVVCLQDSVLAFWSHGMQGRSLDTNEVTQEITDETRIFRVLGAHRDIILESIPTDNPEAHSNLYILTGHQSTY
Summary of the method: as §1

[27] = biological target: T26, PIK3CA(H1047Y) (Homo sapiens, UniProt P42336, H1047Y); conditions: 1 uM
T26 construct: purchased Ambit KINOMEscan (DiscoverX)
Summary of the method: as §1

[28] = biological target: T27, p38-gamma (Homo sapiens, UniProt P53778); conditions: 1 uM
T27 construct: purchased Ambit KINOMEscan (DiscoverX)
Summary of the method: as §1

[29] = biological target: T28, DRAK1 (Homo sapiens, UniProt Q9UEE5); conditions: DRAK1, 1 uM
T28 construct: purchased Ambit KINOMEscan (DiscoverX)
Summary of the method: as §1

[30] = biological target: T29, KIT(V559D) (Homo sapiens, UniProt P10721, V559D); conditions: 1 uM
T29 construct: purchased Ambit KINOMEscan (DiscoverX)
Summary of the method: as §1

T3 sequence (P53667 whole entry): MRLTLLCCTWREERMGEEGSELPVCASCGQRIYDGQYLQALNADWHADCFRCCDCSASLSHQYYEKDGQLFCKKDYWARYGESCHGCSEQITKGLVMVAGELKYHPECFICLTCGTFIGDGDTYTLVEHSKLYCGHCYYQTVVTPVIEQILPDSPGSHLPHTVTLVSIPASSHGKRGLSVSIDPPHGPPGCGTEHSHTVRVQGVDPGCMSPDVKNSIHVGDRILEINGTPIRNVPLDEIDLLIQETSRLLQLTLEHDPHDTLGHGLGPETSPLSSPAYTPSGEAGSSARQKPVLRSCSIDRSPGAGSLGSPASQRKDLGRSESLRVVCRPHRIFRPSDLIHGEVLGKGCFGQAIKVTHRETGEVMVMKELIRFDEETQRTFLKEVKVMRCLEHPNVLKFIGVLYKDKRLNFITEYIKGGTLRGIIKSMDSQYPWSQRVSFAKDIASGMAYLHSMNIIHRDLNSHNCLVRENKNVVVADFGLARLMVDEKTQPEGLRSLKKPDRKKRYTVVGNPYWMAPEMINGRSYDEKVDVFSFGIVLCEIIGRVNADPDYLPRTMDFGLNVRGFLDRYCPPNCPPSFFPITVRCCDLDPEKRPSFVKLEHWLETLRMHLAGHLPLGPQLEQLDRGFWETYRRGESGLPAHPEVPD
T15 sequence (Q9BYT3 whole entry): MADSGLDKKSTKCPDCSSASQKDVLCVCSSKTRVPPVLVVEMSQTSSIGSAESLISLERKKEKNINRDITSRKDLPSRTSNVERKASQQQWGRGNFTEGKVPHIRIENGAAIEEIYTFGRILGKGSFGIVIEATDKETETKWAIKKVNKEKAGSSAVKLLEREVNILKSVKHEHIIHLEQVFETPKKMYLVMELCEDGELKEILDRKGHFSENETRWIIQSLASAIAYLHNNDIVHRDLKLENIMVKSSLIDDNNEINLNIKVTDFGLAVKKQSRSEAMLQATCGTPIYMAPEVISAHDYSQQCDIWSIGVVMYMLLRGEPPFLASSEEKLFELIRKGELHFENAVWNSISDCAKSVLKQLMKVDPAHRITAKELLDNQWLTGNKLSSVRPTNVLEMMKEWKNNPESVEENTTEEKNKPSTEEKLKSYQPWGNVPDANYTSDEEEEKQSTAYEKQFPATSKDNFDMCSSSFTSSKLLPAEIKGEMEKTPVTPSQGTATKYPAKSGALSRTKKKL
T24 sequence (Q9UKE5 whole entry): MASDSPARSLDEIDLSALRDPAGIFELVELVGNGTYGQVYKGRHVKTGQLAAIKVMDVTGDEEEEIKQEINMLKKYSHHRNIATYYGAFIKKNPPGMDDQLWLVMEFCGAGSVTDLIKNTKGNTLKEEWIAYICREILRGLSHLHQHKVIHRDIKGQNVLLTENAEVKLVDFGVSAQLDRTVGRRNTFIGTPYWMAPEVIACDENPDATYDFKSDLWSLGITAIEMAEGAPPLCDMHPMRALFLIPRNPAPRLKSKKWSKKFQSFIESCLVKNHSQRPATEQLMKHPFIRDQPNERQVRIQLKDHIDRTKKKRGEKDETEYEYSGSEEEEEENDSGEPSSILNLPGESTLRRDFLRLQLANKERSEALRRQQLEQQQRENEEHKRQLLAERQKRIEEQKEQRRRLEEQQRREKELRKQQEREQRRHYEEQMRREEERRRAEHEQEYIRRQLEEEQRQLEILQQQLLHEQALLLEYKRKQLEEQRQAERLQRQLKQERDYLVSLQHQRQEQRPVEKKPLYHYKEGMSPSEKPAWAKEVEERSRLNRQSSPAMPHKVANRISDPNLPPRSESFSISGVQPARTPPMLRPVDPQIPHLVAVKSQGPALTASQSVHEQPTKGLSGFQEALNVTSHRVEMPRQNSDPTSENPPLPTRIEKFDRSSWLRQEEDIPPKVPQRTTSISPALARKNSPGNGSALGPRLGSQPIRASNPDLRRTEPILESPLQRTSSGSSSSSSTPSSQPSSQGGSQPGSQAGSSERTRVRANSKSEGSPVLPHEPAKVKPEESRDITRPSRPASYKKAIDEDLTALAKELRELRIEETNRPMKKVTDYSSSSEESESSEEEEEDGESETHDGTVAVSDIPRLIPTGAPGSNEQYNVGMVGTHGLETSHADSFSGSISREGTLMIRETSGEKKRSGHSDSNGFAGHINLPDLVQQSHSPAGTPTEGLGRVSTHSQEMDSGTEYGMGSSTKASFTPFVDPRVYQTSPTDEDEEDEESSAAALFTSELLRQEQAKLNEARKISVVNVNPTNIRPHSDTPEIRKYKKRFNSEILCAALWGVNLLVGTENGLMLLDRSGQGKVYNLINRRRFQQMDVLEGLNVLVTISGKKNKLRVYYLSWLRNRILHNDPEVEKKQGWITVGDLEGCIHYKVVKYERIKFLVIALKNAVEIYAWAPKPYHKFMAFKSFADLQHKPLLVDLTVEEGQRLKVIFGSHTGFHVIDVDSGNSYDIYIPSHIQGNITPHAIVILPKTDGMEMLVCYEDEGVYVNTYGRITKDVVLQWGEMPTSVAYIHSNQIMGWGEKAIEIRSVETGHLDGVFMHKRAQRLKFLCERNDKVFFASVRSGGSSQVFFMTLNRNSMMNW
T14 sequence (P48729 whole entry): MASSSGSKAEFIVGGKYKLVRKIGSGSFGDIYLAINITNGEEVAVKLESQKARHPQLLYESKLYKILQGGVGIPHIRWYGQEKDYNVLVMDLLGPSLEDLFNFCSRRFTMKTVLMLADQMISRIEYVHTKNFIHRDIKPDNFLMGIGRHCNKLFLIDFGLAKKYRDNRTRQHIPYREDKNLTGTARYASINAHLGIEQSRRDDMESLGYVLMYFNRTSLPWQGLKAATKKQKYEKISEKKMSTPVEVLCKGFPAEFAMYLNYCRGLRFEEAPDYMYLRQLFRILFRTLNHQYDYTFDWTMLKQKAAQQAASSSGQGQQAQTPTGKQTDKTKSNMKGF
T10 sequence (Q12866 21-999): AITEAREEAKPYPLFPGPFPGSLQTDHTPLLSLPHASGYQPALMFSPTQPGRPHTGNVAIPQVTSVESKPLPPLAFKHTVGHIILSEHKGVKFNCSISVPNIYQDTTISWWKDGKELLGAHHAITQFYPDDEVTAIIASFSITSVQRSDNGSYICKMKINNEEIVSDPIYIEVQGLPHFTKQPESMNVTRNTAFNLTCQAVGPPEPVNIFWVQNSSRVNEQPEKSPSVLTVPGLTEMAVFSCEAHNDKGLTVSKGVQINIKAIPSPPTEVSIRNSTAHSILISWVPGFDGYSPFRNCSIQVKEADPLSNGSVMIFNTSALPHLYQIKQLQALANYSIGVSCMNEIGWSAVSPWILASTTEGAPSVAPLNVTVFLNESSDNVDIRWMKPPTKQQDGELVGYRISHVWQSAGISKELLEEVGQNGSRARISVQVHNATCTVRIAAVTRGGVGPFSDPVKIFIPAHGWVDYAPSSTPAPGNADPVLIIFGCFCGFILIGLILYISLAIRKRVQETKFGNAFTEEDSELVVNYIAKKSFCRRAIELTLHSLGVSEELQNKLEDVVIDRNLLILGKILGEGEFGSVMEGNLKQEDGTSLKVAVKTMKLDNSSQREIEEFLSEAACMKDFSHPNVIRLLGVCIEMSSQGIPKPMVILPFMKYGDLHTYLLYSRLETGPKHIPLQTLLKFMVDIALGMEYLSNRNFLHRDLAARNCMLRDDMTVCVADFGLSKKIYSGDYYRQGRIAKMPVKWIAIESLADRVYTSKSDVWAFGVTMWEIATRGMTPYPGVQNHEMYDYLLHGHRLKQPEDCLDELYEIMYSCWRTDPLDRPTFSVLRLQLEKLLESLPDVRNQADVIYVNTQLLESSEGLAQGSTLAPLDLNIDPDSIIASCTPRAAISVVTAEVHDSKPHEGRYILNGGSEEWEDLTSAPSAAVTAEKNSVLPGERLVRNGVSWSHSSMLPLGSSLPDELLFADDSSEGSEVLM
T11 sequence (Q13164 whole entry): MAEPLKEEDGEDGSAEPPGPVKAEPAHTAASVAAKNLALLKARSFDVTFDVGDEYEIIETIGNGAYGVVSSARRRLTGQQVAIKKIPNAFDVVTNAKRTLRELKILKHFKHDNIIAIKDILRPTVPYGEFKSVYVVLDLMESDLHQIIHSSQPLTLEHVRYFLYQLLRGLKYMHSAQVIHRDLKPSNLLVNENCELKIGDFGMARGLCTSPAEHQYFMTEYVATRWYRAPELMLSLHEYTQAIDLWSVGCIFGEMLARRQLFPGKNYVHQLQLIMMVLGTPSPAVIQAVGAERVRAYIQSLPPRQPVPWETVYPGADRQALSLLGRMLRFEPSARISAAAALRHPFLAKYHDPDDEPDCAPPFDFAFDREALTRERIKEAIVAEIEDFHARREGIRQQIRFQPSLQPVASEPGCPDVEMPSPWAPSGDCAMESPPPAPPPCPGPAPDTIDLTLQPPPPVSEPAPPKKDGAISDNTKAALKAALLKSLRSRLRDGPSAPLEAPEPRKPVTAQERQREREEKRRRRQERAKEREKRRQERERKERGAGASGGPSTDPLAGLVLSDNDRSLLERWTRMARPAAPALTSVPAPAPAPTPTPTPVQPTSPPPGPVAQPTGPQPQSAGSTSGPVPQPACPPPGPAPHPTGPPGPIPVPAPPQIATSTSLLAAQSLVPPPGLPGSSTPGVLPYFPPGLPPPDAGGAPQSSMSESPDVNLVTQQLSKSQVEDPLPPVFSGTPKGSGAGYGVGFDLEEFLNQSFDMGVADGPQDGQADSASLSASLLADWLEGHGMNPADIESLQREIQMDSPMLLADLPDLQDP
T16 sequence (Q9BXA7 whole entry): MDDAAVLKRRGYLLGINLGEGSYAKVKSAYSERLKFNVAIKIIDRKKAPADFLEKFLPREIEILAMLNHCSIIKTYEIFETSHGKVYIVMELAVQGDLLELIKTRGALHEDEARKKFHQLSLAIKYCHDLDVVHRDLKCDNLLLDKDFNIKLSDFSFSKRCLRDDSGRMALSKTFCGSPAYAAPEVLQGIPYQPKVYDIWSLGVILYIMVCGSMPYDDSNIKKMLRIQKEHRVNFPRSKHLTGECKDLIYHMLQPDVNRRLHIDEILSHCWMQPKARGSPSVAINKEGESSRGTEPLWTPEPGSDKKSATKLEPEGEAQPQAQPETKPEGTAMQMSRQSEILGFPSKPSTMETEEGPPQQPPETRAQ

SMILES	% binding compared to no inhibitor control [1] [%]	% binding compared to no inhibitor control [2] [%]	% binding compared to no inhibitor control [3] [%]	% binding compared to no inhibitor control [4] [%]	% binding compared to no inhibitor control [5] [%]	% binding compared to no inhibitor control [6] [%]	% binding compared to no inhibitor control [7] [%]	% binding compared to no inhibitor control [8] [%]	% binding compared to no inhibitor control [9] [%]	% binding compared to no inhibitor control [10] [%]	% binding compared to no inhibitor control [11] [%]	% binding compared to no inhibitor control [12] [%]	% binding compared to no inhibitor control [13] [%]	% binding compared to no inhibitor control [14] [%]	% binding compared to no inhibitor control [15] [%]	% binding compared to no inhibitor control [16] [%]	% binding compared to no inhibitor control [17] [%]	% binding compared to no inhibitor control [18] [%]	% binding compared to no inhibitor control [19] [%]	% binding compared to no inhibitor control [20] [%]	also measured
COc1ccc(-c2cc3nccn3c(Nc3ncccc3C(N)=O)n2)cc1OC.Cl.Cl [BAY61-3606, 2-[7-(3,4-dimethoxyphenyl)-imidazo [1,2-c]pyrimidin-5-ylamino] nicotinamide dihydrochloride, reference compound]	100	36	100	73	100	90	65	80	90	78	87	82	80	2.1	100	87	96	83	16	100	% binding compared to no inhibitor control [21]: 100%; % binding compared to no inhibitor control [22]: 100%; % binding compared to no inhibitor control [23]: 100%; % binding compared to no inhibitor control [24]: 60%; % binding compared to no inhibitor control [25]: 69%; % binding compared to no inhibitor control [26]: 6%; % inhibition ATP binding ([26]; MAP4K2, KINOMEscan, 1 μM): 94%; % binding compared to no inhibitor control [27]: 80%; % binding compared to no inhibitor control [28]: 47%; % binding compared to no inhibitor control [29]: 57%; % binding compared to no inhibitor control [30]: 3%
COc1ccccc1Nc1nc(-c2ccc(OC)c(OC)c2)cc2nccn12 [BAY derivative 6]	100	95	91	100	86	100	97	100	72	100	100	100	91	82	100	100	100	100	57	100	% binding compared to no inhibitor control [21]: 96%; % binding compared to no inhibitor control [22]: 100%; % binding compared to no inhibitor control [23]: 100%; % binding compared to no inhibitor control [24]: 99%; % binding compared to no inhibitor control [25]: 98%; % binding compared to no inhibitor control [26]: 100%; % binding compared to no inhibitor control [27]: 100%; % binding compared to no inhibitor control [28]: 56%; % binding compared to no inhibitor control [29]: 100%; % binding compared to no inhibitor control [30]: 54%
